Columns and labels:
[1] = tested on: barnyardgrass; assay: Test A preemergence; assay type: in vivo, Echinochloa crus-galli; settings: 0 to 100 scale
Method in brief: (§1)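 Visual injury ratings, 0 = no effect to 100 = complete control, taken about 10 days after treatment against untreated controls. Test chemicals, in a non-phytotoxic surfactant-containing solvent, were sprayed onto soil preemergence or onto one- to two-leaf plants (2–10 cm) postemergence, in loam–sand soil under greenhouse conditions.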

[2] = tested on: crabgrass, large; assay: Test A preemergence; assay type: in vivo, Digitaria sanguinalis; settings: 0 to 100 scale
Method in brief: as §1

[3] = tested on: foxtail, giant; assay: Test A preemergence; assay type: in vivo, Setaria faberii; settings: 0 to 100 scale
Method in brief: as §1

[4] = tested on: morningglory; assay: Test A preemergence; assay type: in vivo, Ipomoea spp.; settings: 0 to 100 scale
Method in brief: as §1

[5] = tested on: pigweed; assay: Test A preemergence; assay type: in vivo, Amaranthus retroflexus; settings: 0 to 100 scale
Method in brief: as §1

[6] = tested on: velvetleaf; assay: Test A preemergence; assay type: in vivo, Abutilon theophrasti; settings: 0 to 100 scale
Method in brief: as §1

[7] = tested on: wheat; assay: Test A preemergence; assay type: in vivo, Triticum aestivum
Method in brief: as §1

[8] = tested on: corn; assay: Test A preemergence; assay type: in vivo, Zea mays; settings: 0 to 100 scale
Method in brief: as §1

[9] = tested on: barnyardgrass; assay: Test A postemergence; assay type: in vivo, Echinochloa crus-galli; settings: Postemergence
Method in brief: as §1

[10] = tested on: crabgrass, large; assay: Test A postemergence; assay type: in vivo, Digitaria sanguinalis
Method in brief: as §1

[11] = tested on: foxtail, giant; assay: Test A postemergence; assay type: in vivo, Setaria faberii
Method in brief: as §1

[12] = tested on: morningglory; assay: Test A postemergence; assay type: in vivo, Ipomoea spp.
Method in brief: as §1

[13] = tested on: pigweed; assay: Test A postemergence; assay type: in vivo, Amaranthus retroflexus
Method in brief: as §1

[14] = tested on: velvetleaf; assay: Test A postemergence; assay type: in vivo, Abutilon theophrasti
Method in brief: as §1

[15] = tested on: wheat; assay: Test A postemergence; assay type: in vivo, Triticum aestivum
Method in brief: as §1

[16] = tested on: corn; assay: Test A postemergence; assay type: in vivo, Zea mays
Method in brief: as §1

[17] = tested on: rice; assay: Test B flood; assay type: in vivo, Oryza sativa; settings: 250 g ai/ha, visual rating on 0 to 100 scale (0 no effect, 100 complete control), 13 to 15 days
Procedure: (§2) Seeds selected from rice (Oryza sativa), sedge, umbrella (small-flower umbrella sedge Cyperus difformis), ducksalad (Heteranthera limosa), and barnyardgrass (Echinochloa crus-galli) were grown to the 2-leaf stage for testing. At time of treatment, test pots were flooded to 3 cm above the soil surface, treated by application of test compounds directly to the paddy water, and then maintained at that water depth for the duration of the test.
(§3) Treated plants and controls were maintained in a greenhouse for 13 to 15 days, after which time all species were compared to controls and visually evaluated. Plant response ratings, summarized in Table B, are based on a scale of 0 to 100 where 0 is no effect and 100 is complete control. A dash (-) response means no test result.

[18] = tested on: sedge, umbrella; assay: Test B flood; assay type: in vivo, Cyperus difformis; settings: 250 g ai/ha, visual rating on 0 to 100 scale (0 no effect, 100 complete control), 13 to 15 days
Procedure: as §2, §3

[19] = tested on: ducksalad; assay: Test B flood; assay type: in vivo, Heteranthera limosa; settings: 250 g ai/ha, visual rating on 0 to 100 scale (0 no effect, 100 complete control), 13 to 15 days
Procedure: as §2, §3

[20] = tested on: barnyardgrass; assay: Test B flood; assay type: in vivo, Echinochloa crus-galli; settings: 250 g ai/ha, visual rating on 0 to 100 scale (0 no effect, 100 complete control), 13 to 15 days
Procedure: as §2, §3

[21] = Preemergence, 1000 g ai/ha, 0 no effect, 100 complete control
[22] = Preemergence, 1000 g ai/ha, 0 to 100 scale, 0 no effect, 100 complete control
[23] = preemergence, 500 g ai/ha, visual injury after approx. 10 days, 0 to 100 scale (0 no effect, 100 complete control)
[24] = 1000 g ai/ha, visual rating after approx. 10 days, 0 to 100 scale (0 no effect, 100 complete control)
[25] = Postemergence, 1000 g ai/ha, visual rating after approx. 10 days, 0 to 100 scale (0 no effect, 100 complete control)
[26] = Preemergence, 500 g ai/ha, 0 no effect, 100 complete control
[27] = preemergence, 125 g ai/ha, visual injury, approx. 10 days
[28] = Postemergence, 500 g ai/ha, visual rating after approx. 10 days, 0 to 100 scale (0 no effect, 100 complete control)
[29] = postemergence, 125 g ai/ha, about 10 days, visual rating on 0 to 100 scale (0 no effect, 100 complete control)

CCCCN(C)C(=O)c1cc(CC)n(Cc2cccc(OC(F)(F)F)c2)n1 [Compound 63]
Barnyardgrass plant response rating [1, 21]: 0 | Crabgrass, Large plant response rating [2, 21]: 0 | Foxtail, Giant plant response rating [3, 21]: 0 | Morningglory plant response rating [4, 21]: 0 | Pigweed plant response rating [5, 21]: 0 | Velvetleaf plant response rating [6, 21]: 0 | Wheat plant response rating [7, 22]: 0 | Wheat plant response rating [7, 23]: 0 | Corn plant response rating [8, 21]: 0 | Barnyardgrass plant response rating [9, 24]: 0 | Crabgrass, Large plant response rating [10, 25]: 10 | Foxtail, Giant plant response rating [11, 25]: 20 | Morningglory plant response rating [12, 25]: 60 | Pigweed plant response rating [13, 25]: 70 | Velvetleaf plant response rating [14, 25]: 30 | Wheat plant response rating [15, 25]: 10 | Corn plant response rating [16, 25]: 20

CCc1cc(C(=O)NC)nn1Cc1cccc(OC(F)(F)F)c1 [Compound 65]
Barnyardgrass plant response rating [1, 21]: 60 | Crabgrass, Large plant response rating [2, 21]: 80 | Foxtail, Giant plant response rating [3, 21]: 70 | Morningglory plant response rating [4, 21]: 70 | Pigweed plant response rating [5, 21]: 90 | Velvetleaf plant response rating [6, 21]: 20 | Wheat plant response rating [7, 22]: 0 | Wheat plant response rating [7, 23]: 0 | Corn plant response rating [8, 21]: 0 | Barnyardgrass plant response rating [9, 24]: 50 | Crabgrass, Large plant response rating [10, 25]: 50 | Foxtail, Giant plant response rating [11, 25]: 50 | Morningglory plant response rating [12, 25]: 90 | Pigweed plant response rating [13, 25]: 70 | Velvetleaf plant response rating [14, 25]: 30 | Wheat plant response rating [15, 25]: 20 | Corn plant response rating [16, 25]: 30

CCc1cc(C(=O)N(C)OC)nn1Cc1cccc(OC(F)(F)F)c1 [Compound 67]
Barnyardgrass plant response rating [1, 21]: 0 | Crabgrass, Large plant response rating [2, 21]: 50 | Foxtail, Giant plant response rating [3, 21]: 90 | Morningglory plant response rating [4, 21]: 0 | Pigweed plant response rating [5, 21]: 0 | Velvetleaf plant response rating [6, 21]: 10 | Wheat plant response rating [7, 22]: 0 | Wheat plant response rating [7, 23]: 0 | Corn plant response rating [8, 21]: 0 | Barnyardgrass plant response rating [9, 24]: 20 | Crabgrass, Large plant response rating [10, 25]: 30 | Foxtail, Giant plant response rating [11, 25]: 40 | Morningglory plant response rating [12, 25]: 40 | Pigweed plant response rating [13, 25]: 40 | Velvetleaf plant response rating [14, 25]: 30 | Wheat plant response rating [15, 25]: 20 | Corn plant response rating [16, 25]: 30

CCc1cc(C(=O)N(C)CC)nn1Cc1cccc(OC(F)(F)F)c1 [Compound 68]
Barnyardgrass plant response rating [1, 21]: 0 | Crabgrass, Large plant response rating [2, 21]: 40 | Foxtail, Giant plant response rating [3, 21]: 60 | Morningglory plant response rating [4, 21]: 0 | Pigweed plant response rating [5, 21]: 70 | Velvetleaf plant response rating [6, 21]: 0 | Wheat plant response rating [7, 22]: 0 | Wheat plant response rating [7, 23]: 0 | Corn plant response rating [8, 21]: 0 | Barnyardgrass plant response rating [9, 24]: 30 | Crabgrass, Large plant response rating [10, 25]: 30 | Foxtail, Giant plant response rating [11, 25]: 20 | Morningglory plant response rating [12, 25]: 100 | Pigweed plant response rating [13, 25]: 60 | Velvetleaf plant response rating [14, 25]: 40 | Wheat plant response rating [15, 25]: 20 | Corn plant response rating [16, 25]: 30

CCCNC(=O)c1cc(C)n(Oc2ccnc(C(F)(F)F)c2)n1 [Compound 80]
Barnyardgrass plant response rating [1, 26]: 80 | Barnyardgrass plant response rating [1, 27]: 10 | Crabgrass, Large plant response rating [2, 26]: 100 | Crabgrass, Large plant response rating [2, 27]: 50 | Foxtail, Giant plant response rating [3, 26]: 90 | Foxtail, Giant plant response rating [3, 27]: 40 | Morningglory plant response rating [4, 26]: 60 | Morningglory plant response rating [4, 27]: 20 | Pigweed plant response rating [5, 26]: 100 | Pigweed plant response rating [5, 27]: 60 | Velvetleaf plant response rating [6, 26]: 50 | Velvetleaf plant response rating [6, 27]: 0 | Wheat plant response rating ([7]; preemergence, 125 g ai/ha, visual injury, 0 to 100 scale, approx. 10 days): 0 | Wheat plant response rating [7, 23]: 10 | Corn plant response rating [8, 26]: 0 | Corn plant response rating [8, 27]: 0 | Barnyardgrass plant response rating ([9]; 125 g ai/ha, 0 to 100 scale, 0 no effect, 100 complete control): 10 | Barnyardgrass plant response rating ([9]; 500 g ai/ha, visual rating after approx. 10 days, 0 to 100 scale (0 no effect, 100 complete control)): 40 | Crabgrass, Large plant response rating [10, 28]: 70 | Crabgrass, Large plant response rating [10, 29]: 10 | Foxtail, Giant plant response rating [11, 28]: 30 | Foxtail, Giant plant response rating [11, 29]: 10 | Morningglory plant response rating [12, 28]: 70 | Morningglory plant response rating [12, 29]: 30 | Pigweed plant response rating [13, 28]: 60 | Pigweed plant response rating [13, 29]: 40 | Velvetleaf plant response rating [14, 28]: 50 | Velvetleaf plant response rating [14, 29]: 10 | Wheat plant response rating [15, 28]: 10 | Wheat plant response rating [15, 29]: 0 | Corn plant response rating [16, 28]: 30 | Corn plant response rating [16, 29]: 10 | Plant response rating, Rice [17]: 0 | Plant response rating, Sedge, Umbrella [18]: 0 | Plant response rating, Ducksalad [19]: 0 | Plant response rating, Barnyardgrass [20]: 0

— patent US20150105252A1, “SUBSTITUTED PYRAZOLES AS HERBICIDES” (E I DU PONT DE NEMOURS AND COMPANY, priority 2013, published 2015)
